Laboratory results: patent US8586638B2, “Parakeratosis inhibitor and skin preparation for external use” (priority 2003, dated 2013)
Where a SMILES comes first, the peptide text is derived from it.

Test system: parakeratosis and skin roughness caused by oleic acid on the back of hairless mice
Experiment: Parakeratosis inhibition effect test: oleic acid applied to the back of hairless mice, visual skin roughness and parakeratosis level
Format: in vivo, hairless mice (HR-1)
Design: key to Evaluation Visual (mean of 4 mice), skin roughness: 0.0 = no roughness, 2.0 = control application; 0.25 steps
Conditions: for effect of inhibiting parakeratosis (conclusion from Table 1): hairless mice, oleic acid, first embodiment; for Evaluation Parakeratosis (mean of 4 mice) / Evaluation Visual (mean of 4 mice), skin roughness: after 10 weight % oleic acid, 3 days; for Evaluation Parakeratosis (mean of 4 mice): range 1.0 to 3.0, higher = severer, control 2.0; for Evaluation Visual (mean of 4 mice), skin roughness: score 0.0 no roughness, 2.0 control
Experimental: A 3 weight % water solution (including 30 weight % ethanol) was prepared as the evaluation specimen of the glycine derivatives in accordance with the invention 1. The pH was regulated to the range between 7.0 to 7.5, by using hydrochloric acid and sodium hydroxide. When the solubility was low, the solution was adjusted accordingly.
100 microliters of 10 weight % oleic acid (solvent: ethanol) was applied to the back of hairless mice (HR-1, Hoshino laboratory animals). Thereafter, 100 microliters of sample solution was applied (glycine derivatives in accordance with said invention 1) at each time. This procedure was repeated for 3 days. The day after the application, the skin condition of the backs was observed by using a CCD camera to evaluate the skin roughness (stratified ablation of the skin surface stratum corneum and red spots). The skin condition was evaluated visually, with scoring the skin condition of control application to 2.0 and the skin condition of no roughness to 0.0, in a 0.25 point step in response to the skin condition. At the same time, the skin surface stratum corneum of the back of hairless mice was peeled off by using a tape for staining the nucleus with haematoxylin to observe the degrees of parakeratosis (parakeratosis level) and evaluate in 0.25 step in the range from 1.0 to 3.0. The higher evaluation points indicates the larger number of parakeratotic corneocytes count, i.e., severer parakeratosis.
The samples to be evaluated of the glycine derivatives and the salts thereof as well as the aminosulfuric acid derivatives and the salts thereof in accordance with the invention 2 were prepared mainly 3 weight % solution (including 30 weight % ethanol, excluding Hydantoic acid and ACES which include 20 weight % ethanol). pH was regulated by using hydrochloric acid or sodium hydroxide to be 7.0 to 7.5. When the solubility was low, then the solution was prepared accordingly.
100 microliters of 10 weight % oleic acid (solvent: ethanol) was applied to the back of Hairless mice (HR-1, Hoshino laboratory animals) Thereafter, 100 microliters of sample solution (glycine derivatives in accordance with the invention 2) was applied thereon at each time. This procedure was repeated for 3 days. The day after the application, the skin condition of the backs was observed by using a CCD camera to evaluate the skin roughness (stratified ablation of the skin surface stratum corneum and red spots). The skin condition was evaluated visually, with scoring the skin condition of control application to 2.0 and the skin condition of no roughness to 0.0, in a 0.25 point step in response to the skin condition. At the same time, the skin surface stratum corneum of the back of hairless mice was peeled off by using a tape for staining the nucleus with haematoxylin to observe the degrees of parakeratosis and evaluate in 0.25 step in the range from 1.0 to 3.0. The higher evaluation points indicates the larger number of parakeratotic corneocytes count, i.e., severer parakeratosis.

[1] = sample 3 weight % in aqueous 30 weight % ethanol
[2] = sample 1 weight % in aqueous 30 weight % ethanol

| Compound | effect of inhibiting parakeratosis (conclusion from Table 1) | Evaluation Parakeratosis (mean of 4 mice) [1] | Evaluation Visual (mean of 4 mice), skin roughness [1] | Evaluation Parakeratosis (mean of 4 mice) [2] | Evaluation Visual (mean of 4 mice), skin roughness [2] |
| --- | --- | --- | --- | --- | --- |
| CC(=O)N[C@@H](CC(=O)O)C(=O)O [N-acetyl-L-aspartic acid] | have the effect of inhibiting parakeratosis | 1.5 | 1.4 |  |  |
| Cl.NCC(=O)OCc1ccccc1 [glycine benzyl ester HCL, glycine benzyl ester hydrochloride] | have the effect of inhibiting parakeratosis | 1.2 | 1.3 |  |  |
| CCOC(=O)CCN.Cl [beta-alanine ethyl ester HCL, beta-alanine ethyl-ester hydrochloride] | have the effect of inhibiting parakeratosis | 1.2 | 1.0 |  |  |
| NCC(=O)NCC(=O)NCC(=O)O [glycyl-glycylglycine, reference compound] (H-Gly-Gly-Gly-OH) |  |  |  | 2.0 | 1.9 |
| CCCCOC(=O)CN.Cl [glycine n-butyl ester HCL, glycine n-butyl ester hydrochloride] | have the effect of inhibiting parakeratosis | 1.5 | 1.6 |  |  |
| CC(C)(C)OC(=O)CN.Cl [glycine t-butyl ester HCL, glycine t-butyl ester hydrochloride] | have the effect of inhibiting parakeratosis | 1.5 | 1.6 |  |  |
| O=C(O)CC[C@H](NS(=O)(=O)c1ccccc1)C(=O)O [N-benzenesulfonyl-L-glutamic acid, N-benzene-sulfonyl-L-glutamic acid] | have the effect of inhibiting parakeratosis | 1.6 | 1.6 |  |  |
| O=C(O)C1CCNCC1 [isonipecotinic acid, isonipecotic acid] | have the effect of inhibiting parakeratosis | 1.5 | 1.6 |  |  |
| O=C(O)CC[C@H](NC(=O)c1ccccc1)C(=O)O [N-benzoyl-L-glutamic acid] | have the effect of inhibiting parakeratosis | 1.6 | 1.7 |  |  |
| CCCOC(=O)CN.Cl [glycine n-propyl ester HCL, glycine n-propyl ester hydrochloride] | have the effect of inhibiting parakeratosis | 1.4 | 1.4 |  |  |
| N=C(N)N1CCC(C(=O)O)CC1 [guanidinoisonipecotinic acid, reference compound] |  | 2.2 | 2.0 |  |  |
| CCOC(=O)CN.Cl [glycine ethyl ester HCL, glycine ethyl ester hydrochloride] | have the effect of inhibiting parakeratosis | 1.1 | 1.2 |  |  |
| NCC(N)=O [glycine amide, reference compound] |  | 2.1 | 1.9 |  |  |
